Reference: article PMC9127186, “Molecular Basis Underlying Hepatobiliary and Renal Excretion of Phenolic Acids of Salvia miltiorrhiza Roots (Danshen)” (Frontiers in Pharmacology, 2022)
Read-outs that look alike come from different tables or passages of the source.

Key:
rat Bcrp = target: T1, rat Bcrp (Rattus norvegicus, UniProt Q80W57); experiment: Vesicular transport assay, inside-out membrane vesicles expressing rat Bcrp; conditions: 10 min
T1 sequence (Q80W57 1-657): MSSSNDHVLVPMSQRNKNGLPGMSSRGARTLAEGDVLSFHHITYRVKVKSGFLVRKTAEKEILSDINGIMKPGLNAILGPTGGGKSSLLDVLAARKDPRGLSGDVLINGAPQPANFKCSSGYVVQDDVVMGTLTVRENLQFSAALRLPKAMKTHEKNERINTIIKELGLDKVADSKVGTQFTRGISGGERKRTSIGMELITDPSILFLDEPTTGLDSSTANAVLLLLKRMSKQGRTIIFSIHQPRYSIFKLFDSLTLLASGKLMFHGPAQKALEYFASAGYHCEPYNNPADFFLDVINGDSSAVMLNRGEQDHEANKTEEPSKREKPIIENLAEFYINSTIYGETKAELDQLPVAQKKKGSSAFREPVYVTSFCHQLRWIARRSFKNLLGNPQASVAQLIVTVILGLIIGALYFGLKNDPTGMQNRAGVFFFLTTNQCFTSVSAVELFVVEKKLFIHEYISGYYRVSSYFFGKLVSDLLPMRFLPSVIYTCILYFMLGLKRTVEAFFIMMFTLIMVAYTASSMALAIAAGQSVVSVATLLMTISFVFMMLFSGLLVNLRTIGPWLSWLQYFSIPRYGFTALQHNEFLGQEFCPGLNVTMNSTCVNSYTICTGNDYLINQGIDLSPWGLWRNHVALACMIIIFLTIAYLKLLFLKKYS
Procedure: Inside-out membrane vesicles (5 mg protein/mL), prepared from insect cells expressing human multidrug resistance-associated protein (MRP) 2, MRP3, MRP4, breast cancer resistance protein (BCRP), bile salt export pump (BSEP), and multidrug resistance protein (MDR) one and rat Mrp2, Mrp4, Bcrp, and Bsep, and vesicles (5 mg protein/mL; prepared from the insect cells expressing no ABC transporter; serving as negative control) were obtained from Genomembrane (Kanazawa, Japan).
The test Danshen compounds at 100 µM final concentration were separately incubated with the membrane vesicles for 10 min. Buffer C (50 mM MOPS-tris, 70 mM KCl, 7.5 mM MgCl2, pH 7.0) was used for preincubation and incubation, while buffer D (40 mM MOPS-tris, 70 mM KCl, pH 7.0) was used for vesicle washing. The transport rate (pmol/mg protein/min) of the test Danshen compound was calculated using Equation (2): Transport=(CV×VV)/T/WV (2) where C V, V V, T, and W V represent concentration of the compound in vesicular lysates supernatant (μM), volume of the lysates (μL), incubation time (10 min), and amount of vesicle protein amount per well (0.05 mg), respectively. Differential transport of the test Danshen compound between ATP-containing vesicles and AMP-containing vesicles was defined as net transport ratio (TransportATP/TransportAMP ratio). […] All the incubation samples were analyzed by liquid chromatography/mass spectrometry.

rat Oct1 = target: T2, rat Oct1 (Rattus norvegicus, UniProt Q63089); experiment: Cellular transport assay, HEK-293 cells expressing rat Oct1; conditions: Danshen phenolic acid at 100 μM final concentration, 10 min; rat Oct1-transfected vs mock cells
T2 sequence (Q63089 1-556): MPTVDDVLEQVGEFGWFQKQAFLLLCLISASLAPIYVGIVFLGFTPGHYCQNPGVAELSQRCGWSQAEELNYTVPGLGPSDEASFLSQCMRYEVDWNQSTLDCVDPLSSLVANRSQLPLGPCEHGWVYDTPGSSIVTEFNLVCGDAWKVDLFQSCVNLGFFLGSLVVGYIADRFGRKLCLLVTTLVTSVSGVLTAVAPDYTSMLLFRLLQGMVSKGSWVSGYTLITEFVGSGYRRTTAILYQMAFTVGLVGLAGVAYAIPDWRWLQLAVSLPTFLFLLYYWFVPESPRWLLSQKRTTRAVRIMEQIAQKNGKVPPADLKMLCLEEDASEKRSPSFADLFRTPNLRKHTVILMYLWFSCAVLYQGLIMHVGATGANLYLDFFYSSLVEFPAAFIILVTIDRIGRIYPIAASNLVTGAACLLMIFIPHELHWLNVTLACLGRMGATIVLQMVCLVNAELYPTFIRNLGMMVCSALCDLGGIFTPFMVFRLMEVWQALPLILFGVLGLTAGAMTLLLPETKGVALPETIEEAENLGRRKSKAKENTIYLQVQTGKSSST

human OCT1 [1] = target: T3, human OCT1 (Homo sapiens, UniProt O15245); experiment: Cellular transport assay, HEK-293 cells expressing human OCT1; conditions: Danshen phenolic acid at 100 μM final concentration, 10 min; human OCT1-transfected vs mock cells
T3 sequence (O15245 1-554): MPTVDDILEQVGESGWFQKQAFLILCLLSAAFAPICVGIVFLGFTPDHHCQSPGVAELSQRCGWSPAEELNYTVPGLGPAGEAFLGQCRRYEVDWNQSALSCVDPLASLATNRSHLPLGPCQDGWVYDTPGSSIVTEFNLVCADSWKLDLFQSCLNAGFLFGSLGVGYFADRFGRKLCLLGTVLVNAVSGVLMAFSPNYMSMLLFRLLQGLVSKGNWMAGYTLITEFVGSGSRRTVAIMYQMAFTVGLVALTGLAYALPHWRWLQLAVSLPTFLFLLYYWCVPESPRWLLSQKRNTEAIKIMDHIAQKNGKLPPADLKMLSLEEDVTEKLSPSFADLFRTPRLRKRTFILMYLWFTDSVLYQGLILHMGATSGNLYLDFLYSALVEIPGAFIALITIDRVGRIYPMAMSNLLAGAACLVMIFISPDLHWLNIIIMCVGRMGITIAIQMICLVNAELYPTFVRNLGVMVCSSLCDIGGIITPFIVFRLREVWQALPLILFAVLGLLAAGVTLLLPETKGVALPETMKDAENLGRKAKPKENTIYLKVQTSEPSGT

human OCT1 [2] = target: T3, human OCT1; conditions: 10 min, 100 μM
human NTCP = target: T4, human NTCP (Homo sapiens, UniProt Q14973); conditions: 10 min, 100 μM
T4 sequence (Q14973 1-349): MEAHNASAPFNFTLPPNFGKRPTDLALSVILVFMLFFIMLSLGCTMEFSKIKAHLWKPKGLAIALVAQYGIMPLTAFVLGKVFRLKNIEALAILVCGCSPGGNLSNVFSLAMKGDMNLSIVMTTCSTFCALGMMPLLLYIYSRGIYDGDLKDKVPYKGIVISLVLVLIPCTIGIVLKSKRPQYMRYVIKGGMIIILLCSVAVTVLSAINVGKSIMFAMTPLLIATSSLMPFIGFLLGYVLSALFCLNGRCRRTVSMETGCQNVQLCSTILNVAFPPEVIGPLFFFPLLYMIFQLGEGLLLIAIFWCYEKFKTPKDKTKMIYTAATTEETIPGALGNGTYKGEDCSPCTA

[3] = Danshen phenolic acid at 100 μM final concentration, rat Bcrp vesicles

Row | Molecule | TransportATP/TransportAMP ratio (net transport ratio) (rat Bcrp; [3]) | TransportTC/TransportMC ratio (net transport ratio) (rat Oct1) | TransportTC/TransportMC ratio (net transport ratio) (human OCT1 [1]) | TransportATP/TransportAMP ratio (net transport ratio) (rat Bcrp; rat, not told, 100 μM, pH 7) | TransportTC/TransportMC ratio (net transport ratio) (human OCT1 [2]) | TransportTC/TransportMC ratio (net transport ratio) (human NTCP)
1 | O=C(/C=C/c1ccc(O)c2c1[C@H](C(=O)O)[C@@H](c1ccc(O)c(O)c1)O2)O[C@H](Cc1ccc(O)c(O)c1)C(=O)O [Lithospermic acid, lithospermic acid] | 1.27 ± 0.20 | 1.18 ± 0.06 | 1.56 ± 0.26 | – | – | –
2 | O=C(O)c1ccc(O)c(O)c1 [Protocatechuic acid, protocatechuic acid] | 0.94 ± 0.21 | 1.19 ± 0.41 | 1.09 ± 0.33 | – | – | –
3 | O=C(/C=C/c1ccc(O)c(O)c1)O[C@H](Cc1ccc(O)c(O)c1)C(=O)O [Rosmarinic acid, rosmarinic acid] | – | – | – | 1.45 ± 0.32 | 1.46 ± 0.57 | 2.76 ± 0.36
4 | O=C(/C=C/c1ccc(O)c(O)c1/C=C/c1ccc(O)c(O)c1)O[C@H](Cc1ccc(O)c(O)c1)C(=O)O [Salvianolic acid A, salvianolic acid A] | – | – | – | 1.31 ± 0.04 | 1.04 ± 0.32 | 0.93 ± 0.11
5 | O=C(O)Cc1c(/C=C/C(=O)O[C@H](Cc2ccc(O)c(O)c2)C(=O)O)ccc(O)c1O [Salvianolic acid D, salvianolic acid D] | – | 1.23 ± 0.54 | 1.04 ± 0.24 | – | – | –
6 | salvianolic acid B | 1.13 ± 0.14 | 0.66 ± 0.17 | 1.03 ± 0.07 | – | – | –
